From patent US9833497B2, “Human originated EGF domain proteins and use of the same” (CHENGDU SOURCEBIO LIMITED-LIABILITY COMPANY, priority 2013, dated 2017)

Key:
Format in all cases: cell-based
Moraxella catarrhalis = test: MIC against Gram-negative bacteria: Moraxella catarrhalis; settings: for MIC against M. catarrhalis / MIC (μg/mL) M. catarrhalis / MIC M. catarrhalis: 5×10^5 CFU/mL; for MIC (μg/mL) M. catarrhalis / MIC: M. catarrhalis
Procedure, shortened: (§1)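 Broth microdilution, LB medium, final inoculum 5×10^5 CFU/mL from McFarland 0.5 cultures. Recombinant human EGF domain proteins tested in two-fold steps, n=3. MIC: lowest concentration, no growth.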

Klebsiella pneumonia = test: MIC against Gram-negative bacteria: Klebsiella pneumonia; settings: for MIC against K. pneumonia / MIC (μg/mL) K. pneumonia / MIC K. pneumonia: 5×10^5 CFU/mL; for MIC (μg/mL) K. pneumonia / MIC: K. pneumonia
Procedure, shortened: as §1

Aeromonas hydrophila = test: MIC against Gram-negative bacteria: Aeromonas hydrophila; settings: for MIC against A. hydrophila / MIC (μg/mL) A. hydrophila / MIC A. hydrophila: 5×10^5 CFU/mL; for MIC (μg/mL) A. hydrophila / MIC: A. hydrophila
Procedure, shortened: as §1

Pseudomonas aeruginosa = test: MIC against Gram-negative bacteria: Pseudomonas aeruginosa; settings: for MIC against P. aeruginosa / MIC (μg/mL) P. aeruginosa / MIC P. aeruginosa: 5×10^5 CFU/mL; for MIC (μg/mL) P. aeruginosa / MIC: P. aeruginosa
Procedure, shortened: as §1

E. coli BL21 = test: MIC against Gram-negative bacteria: E. coli BL21; settings: for MIC against E. coli BL21 / MIC (μg/mL) E. coli BL21 / MIC E. coli BL21: 5×10^5 CFU/mL
Procedure, shortened: as §1

E. coli DH5α = test: Antibacterial activity: MIC and growth curve against E. coli DH5α in 96-well plate; settings: minimal inhibitory concentration against E. coli DH5α; 96-well plate, 5×10^5 CFU/mL, 37° C., judged after 8 h
Procedure, shortened: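 Log-phase bacteria (OD600 ~0.5) resuspended in LB at 5×10^5 CFU/mL, exposed to recombinant protein at 50, 25, 12.5 μg/mL final in triplicate, 37 °C shaking at 175 rpm. OD600 read every 30 min; MIC is lowest concentration showing no growth.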

Citrobacter diversus = test: MIC against Gram-negative bacteria: Citrobacter diversus; settings: for MIC against C. diversus / MIC (μg/mL) C. diversus / MIC C. diversus: 5×10^5 CFU/mL; for MIC (μg/mL) C. diversus / MIC: C. diversus
Procedure, shortened: as §1

Enterobacter cloacae = test: MIC against Gram-negative bacteria: Enterobacter cloacae; settings: for MIC against E. cloacae / MIC (μg/mL) E. cloacae / MIC E. cloacae: 5×10^5 CFU/mL; for MIC (μg/mL) E. cloacae / MIC: E. cloacae
Procedure, shortened: as §1

Proteus mirabilis = test: MIC against Gram-negative bacteria: Proteus mirabilis; settings: for MIC against P. mirabilis / MIC (μg/mL) P. mirabilis / MIC P. mirabilis: 5×10^5 CFU/mL; for MIC (μg/mL) P. mirabilis / MIC: P. mirabilis
Procedure, shortened: as §1

Serratia marcescens = test: MIC against Gram-negative bacteria: Serratia marcescens; settings: for MIC against S. marcescens / MIC (μg/mL) S. marcescens / MIC S. marcescens: 5×10^5 CFU/mL; for MIC (μg/mL) S. marcescens / MIC: S. marcescens
Procedure, shortened: as §1

Proteus vulgaris = test: MIC against Gram-negative bacteria: Proteus vulgaris; settings: for MIC against P. vulgaris / MIC (μg/mL) P. vulgaris / MIC P. vulgaris: 5×10^5 CFU/mL; for MIC (μg/mL) P. vulgaris / MIC: P. vulgaris
Procedure, shortened: as §1

[1] = E. coli BL21, 10 h cultivation at 37° C.
[2] = 10 h cultivation at 37° C., two-fold serial dilution

PRT1441 (EVDECSWPDHGGCEHRCVNTLGSYKCACDPGYELAADKKMCE; listed as Homo sapiens)
25 µg/mL: MIC against K. pneumonia (Klebsiella pneumonia; Klebsiella pneumonia, 10 h cultivation at 37° C.) | MIC against A. hydrophila (Aeromonas hydrophila; Aeromonas hydrophila, 10 h cultivation at 37° C.) | MIC against E. coli BL21 (E. coli BL21; [1]) | MIC (E. coli DH5α) | MIC against P. vulgaris (Proteus vulgaris; Proteus vulgaris, 10 h cultivation at 37° C.)
100 µg/mL: MIC against C. diversus (Citrobacter diversus; Citrobacter diversus, 10 h cultivation at 37° C.)
12.5 µg/mL: MIC against M. catarrhalis (Moraxella catarrhalis; Moraxella catarrhalis, 10 h cultivation at 37° C.) | MIC against P. aeruginosa (Pseudomonas aeruginosa; Pseudomonas aeruginosa, 10 h cultivation at 37° C.) | MIC against E. cloacae (Enterobacter cloacae; Enterobacter cloacae, 10 h cultivation at 37° C.) | MIC against P. mirabilis (Proteus mirabilis; Proteus mirabilis, 10 h cultivation at 37° C.) | MIC against S. marcescens (Serratia marcescens; Serratia marcescens, 10 h cultivation at 37° C.)

PRT871 (CYCNPLGSIHDRCNGSGFCECKTGTTGPKCDECLPGNSWHYGCQPNVCDN; listed as Homo sapiens)
25 µg/mL: MIC (μg/mL) M. catarrhalis (Moraxella catarrhalis; 10 h cultivation at 37° C.) | MIC (μg/mL) E. coli BL21 (E. coli BL21; [1])
50 µg/mL: MIC (μg/mL) P. aeruginosa (Pseudomonas aeruginosa; 10 h cultivation at 37° C.) | MIC (μg/mL) P. vulgaris (Proteus vulgaris; 10 h cultivation at 37° C.)
12.5 µg/mL: MIC (μg/mL) K. pneumonia (Klebsiella pneumonia; 10 h cultivation at 37° C.) | MIC (μg/mL) A. hydrophila (Aeromonas hydrophila; 10 h cultivation at 37° C.) | MIC (E. coli DH5α) | MIC (μg/mL) C. diversus (Citrobacter diversus; 10 h cultivation at 37° C.) | MIC (μg/mL) E. cloacae (Enterobacter cloacae; 10 h cultivation at 37° C.) | MIC (μg/mL) P. mirabilis (Proteus mirabilis; 10 h cultivation at 37° C.) | MIC (μg/mL) S. marcescens (Serratia marcescens; 10 h cultivation at 37° C.)

PRT178 (SGVTCADGPCFNGGLCVGGADPDSAYICHCPPGFQGSNCE; listed as Homo sapiens)
12.5 µg/mL: MIC (μg/mL) M. catarrhalis (Moraxella catarrhalis; 10 h cultivation at 37° C.) | MIC (μg/mL) K. pneumonia (Klebsiella pneumonia; 10 h cultivation at 37° C.) | MIC (μg/mL) A. hydrophila (Aeromonas hydrophila; 10 h cultivation at 37° C.) | MIC (μg/mL) P. vulgaris (Proteus vulgaris; 10 h cultivation at 37° C.)
50 µg/mL: MIC (μg/mL) E. coli BL21 (E. coli BL21; [1]) | MIC (μg/mL) C. diversus (Citrobacter diversus; 10 h cultivation at 37° C.) | MIC (μg/mL) E. cloacae (Enterobacter cloacae; 10 h cultivation at 37° C.) | MIC (μg/mL) P. mirabilis (Proteus mirabilis; 10 h cultivation at 37° C.)
25 µg/mL: MIC (μg/mL) P. aeruginosa (Pseudomonas aeruginosa; 10 h cultivation at 37° C.) | MIC (E. coli DH5α) | MIC (μg/mL) S. marcescens (Serratia marcescens; 10 h cultivation at 37° C.)

PRT1224 (PPGDCASHPCQNGGSCEPGLHSGFTCSCPDSHTGRTCE; listed as Homo sapiens)
50 µg/mL: MIC against A. hydrophila (Aeromonas hydrophila; Aeromonas hydrophila, 96-well plate, 37° C., 10 h) | MIC against E. coli BL21 (E. coli BL21; E. coli BL21, 96-well plate, 37° C., 10 h) | MIC against P. mirabilis (Proteus mirabilis; Proteus mirabilis, 96-well plate, 37° C., 10 h) | MIC against S. marcescens (Serratia marcescens; Serratia marcescens, 96-well plate, 37° C., 10 h)
25 µg/mL: MIC against M. catarrhalis (Moraxella catarrhalis; Moraxella catarrhalis, 96-well plate, 37° C., 10 h) | MIC against P. aeruginosa (Pseudomonas aeruginosa; Pseudomonas aeruginosa, 96-well plate, 37° C., 10 h) | MIC (E. coli DH5α) | MIC against E. cloacae (Enterobacter cloacae; Enterobacter cloacae, 96-well plate, 37° C., 10 h)
12.5 µg/mL: MIC against K. pneumonia (Klebsiella pneumonia; Klebsiella pneumonia, 96-well plate, 37° C., 10 h) | MIC against C. diversus (Citrobacter diversus; Citrobacter diversus, 96-well plate, 37° C., 10 h) | MIC against P. vulgaris (Proteus vulgaris; Proteus vulgaris, 96-well plate, 37° C., 10 h)

PRT684 (APVLCPLICHNGGVCVKPDRCLCPPDFAGKFCQ; listed as Homo sapiens)
50 µg/mL: MIC A. hydrophila (Aeromonas hydrophila; 96-well plate, 37° C., 10 h) | MIC P. aeruginosa (Pseudomonas aeruginosa; 96-well plate, 37° C., 10 h) | MIC P. vulgaris (Proteus vulgaris; 96-well plate, 37° C., 10 h)
25 µg/mL: MIC K. pneumonia (Klebsiella pneumonia; 96-well plate, 37° C., 10 h) | MIC E. coli BL21 (E. coli BL21; 96-well plate, 37° C., 10 h) | MIC C. diversus (Citrobacter diversus; 96-well plate, 37° C., 10 h) | MIC P. mirabilis (Proteus mirabilis; 96-well plate, 37° C., 10 h)
12.5 µg/mL: MIC M. catarrhalis (Moraxella catarrhalis; 96-well plate, 37° C., 10 h) | MIC (E. coli DH5α) | MIC E. cloacae (Enterobacter cloacae; 96-well plate, 37° C., 10 h) | MIC S. marcescens (Serratia marcescens; 96-well plate, 37° C., 10 h)

PRT486 (EANPCKFQACNEFSECLVNPWSGEAKCRCFPGYLSVEERPCQ; listed as Homo sapiens)
12.5 µg/mL: MIC against P. aeruginosa (Pseudomonas aeruginosa; 96-well plate, 37° C., 10 h) | MIC (E. coli DH5α) | MIC against C. diversus (Citrobacter diversus; 96-well plate, 37° C., 10 h) | MIC against E. cloacae (Enterobacter cloacae; 96-well plate, 37° C., 10 h) | MIC against P. mirabilis (Proteus mirabilis; 96-well plate, 37° C., 10 h)
50 µg/mL: MIC against M. catarrhalis (Moraxella catarrhalis; 96-well plate, 37° C., 10 h) | MIC against K. pneumonia (Klebsiella pneumonia; 96-well plate, 37° C., 10 h) | MIC against A. hydrophila (Aeromonas hydrophila; 96-well plate, 37° C., 10 h) | MIC against E. coli BL21 (E. coli BL21; 96-well plate, 37° C., 10 h) | MIC against P. vulgaris (Proteus vulgaris; 96-well plate, 37° C., 10 h)
25 µg/mL: MIC against S. marcescens (Serratia marcescens; 96-well plate, 37° C., 10 h)

PRT1143 (NLDECLSEPCLHDGVCIDGINHYTCDCKSGFFGTHCE; listed as Homo sapiens)
12.5 µg/mL: MIC (E. coli DH5α) | MIC C. diversus (Citrobacter diversus; [2]) | MIC E. cloacae (Enterobacter cloacae; [2]) | MIC P. mirabilis (Proteus mirabilis; [2]) | MIC S. marcescens (Serratia marcescens; [2])
50 µg/mL: MIC M. catarrhalis (Moraxella catarrhalis; [2]) | MIC A. hydrophila (Aeromonas hydrophila; [2]) | MIC P. aeruginosa (Pseudomonas aeruginosa; [2]) | MIC P. vulgaris (Proteus vulgaris; [2])
25 µg/mL: MIC K. pneumonia (Klebsiella pneumonia; [2]) | MIC E. coli BL21 (E. coli BL21; [2])

PRT1041 (VPLCAQECVHGRCVAPNQCQCVPGWRGDDCS; listed as Homo sapiens)
50 µg/mL: MIC (Moraxella catarrhalis; 10 h cultivation at 37° C.) | MIC (Aeromonas hydrophila; 10 h cultivation at 37° C.) | MIC (Pseudomonas aeruginosa; 10 h cultivation at 37° C.) | MIC (Enterobacter cloacae; 10 h cultivation at 37° C.) | MIC (Proteus vulgaris; 10 h cultivation at 37° C.)
12.5 µg/mL: MIC (E. coli DH5α) | MIC (Citrobacter diversus; 10 h cultivation at 37° C.)
25 µg/mL: MIC (Klebsiella pneumonia; 10 h cultivation at 37° C.) | MIC (E. coli BL21; [1]) | MIC (Proteus mirabilis; 10 h cultivation at 37° C.) | MIC (Serratia marcescens; 10 h cultivation at 37° C.)

PRT483 (DCRAVYDRYSDDFCSGHGQCNCGRCDCKAGWYGKKCE; listed as Homo sapiens)
50 µg/mL: MIC against P. aeruginosa (Pseudomonas aeruginosa; 96-well plate, 37° C., 10 h) | MIC against C. diversus (Citrobacter diversus; 96-well plate, 37° C., 10 h) | MIC against S. marcescens (Serratia marcescens; 96-well plate, 37° C., 10 h)
25 µg/mL: MIC against M. catarrhalis (Moraxella catarrhalis; 96-well plate, 37° C., 10 h) | MIC against K. pneumonia (Klebsiella pneumonia; 96-well plate, 37° C., 10 h) | MIC against A. hydrophila (Aeromonas hydrophila; 96-well plate, 37° C., 10 h) | MIC against E. coli BL21 (E. coli BL21; 96-well plate, 37° C., 10 h) | MIC against P. vulgaris (Proteus vulgaris; 96-well plate, 37° C., 10 h)
12.5 µg/mL: MIC (E. coli DH5α) | MIC against E. cloacae (Enterobacter cloacae; 96-well plate, 37° C., 10 h) | MIC against P. mirabilis (Proteus mirabilis; 96-well plate, 37° C., 10 h)

PRT983 (VARSCRELQCPVGVPCQQTPRGPRCACPPGLSGPSCR; listed as Homo sapiens)
12.5 µg/mL: MIC (Moraxella catarrhalis; 10 h cultivation at 37° C.) | MIC (E. coli BL21; [1]) | MIC (Enterobacter cloacae; 10 h cultivation at 37° C.) | MIC (Proteus vulgaris; 10 h cultivation at 37° C.)
25 µg/mL: MIC (Aeromonas hydrophila; 10 h cultivation at 37° C.) | MIC (Pseudomonas aeruginosa; 10 h cultivation at 37° C.) | MIC (E. coli DH5α) | MIC (Serratia marcescens; 10 h cultivation at 37° C.)
50 µg/mL: MIC (Klebsiella pneumonia; 10 h cultivation at 37° C.) | MIC (Citrobacter diversus; 10 h cultivation at 37° C.) | MIC (Proteus mirabilis; 10 h cultivation at 37° C.)
